# System: retinoblastoma
# Test: Murine transgenic model of retinoblastoma, subconjunctival treatment
# Format: in vivo, SV-40 Large T antigen positive mice
# Procedure: A murine transgenic model of retinoblastoma was used in which SV-40 Large T antigen positive mice develop bilateral retinoblastoma resembling human pediatric retinoblastoma. In this model, tumors first appear at 4 weeks of age and develop in a stable and reproducible manner (Hayden et al., Arch Ophthalmol. 2002;120(3):353-9). In one experiment, 12-week old animals (n=48) were treated with a single 20 ul subconjunctival injection of CA4P (100 mg/ml) in the right eye only. Control mice (n=8) were treated with a balanced salt solution (“BSS”). Eyes were sampled by enucleation at Days 1, 3, 7, 14, 21, and 28 post treatment (n=8 eyes per sample). Samples were fixed, paraffin embedded, serially sectioned, and stained with heometoxylin, eosin, and PAS prior. Each tissue sample was examined for histopathological tumor vascular response.
# In a separate dosing experiment, animals (n=48) were treated with 6 serial biweekly subconjunctival injections of CA4P, at concentrations of 100, 10, 1, 0.1 or 0.01 mg/ml in a volume of 20 ul (n=6 eyes per sample). A control group (n=6) received serial subconjunctival injections of BSS. Eyes were enucleated at 28 days post-treatment and examined for tumor volume reduction. FIG. 5B illustrates the dose-dependent effect of CA4P on tumor vascular volume in comparison to control.
smiles,measurement,setting,value
"COc1ccc(/C=C\c2cc(OC)c(OC)c(OC)c2)cc1OP(=O)([O-])[O-].[Na+].[Na+] [CA4P, combretastatin A4 disodium phosphate]",Intratumoral vascularity,"6 serial biweekly subconjunctival injections, dose levels above 10 mg/ml, 28 days post-treatment",No intratumoral vascularity was present
same,Toxicity,any time point or treatment dose (0.01-100 mg/ml subconjunctival),no evidence of toxicity was noted
same,Intratumoral vascularization,"single 20 ul subconjunctival injection, 100 mg/ml, Days 1, 3 and 7",significant reduction in intratumoral vascularization

# — patent publication US20040229960A1, “Compositions and methods of administering tubulin binding agents for the treatment of ocular diseases” (priority 2001, published 2004)
